# Patent US20220071952A1, “METHODS OF TREATING AND PREVENTING HEPATOTOXICITY” (Natreon, Inc., priority 2020, published 2022)
# Key:
# [1] = Body weight, food intake and water intake during alcohol-induced hepatotoxicity study (Example III); format: in vivo, Swiss Albino mice; conditions: for change in body weight / change in food intake / change in water intake: 10 mg/kg p.o. + alcohol, 15 days; for body weight / food intake / water intake: 10 mg/kg p.o. + alcohol 5 g/kg p.o. twice daily, mean ± SD
# Description: Swiss Albino male and female mice weighing approximately 30±5 g, 2 month old mice were obtained from National Research Institute of Ayurveda for Drug Development (Govt. of India), Kolkata, and were housed in polypropylene cages at 22±3° C., relative air humidity of 45 to 55%, with 12.00 hr light & dark cycle (lighting on from 6:00 AM to 6:00 PM). Mice were provided a standard pellet chow diet (carbohydrate 65.5%, protein 17.6%, fat 6.6%) and distilled water ad libitum. The mice were acclimatized for one week in the laboratory conditions, before being used in the experiment. All experiments were conducted between 10.00 hr and 14.00 hr. Principles of laboratory animals care (NIH publication no. 85-23, revised 1985) were followed.
# Vehicle control animals (“Con Veh”) were administered 0.3% CMC orally for 15 days.
# Animals receiving ethanol (“Alc+0.3 CMC”, “3-OH-DBP+Alc”, “3,8-(OH)2-DBP+Alc”) were administered ethanol in 0.3% CMC orally as discussed above.
# Results were expressed in terms of mean±SD (n=8). The data were subjected to one way ANOVA followed by Tukey's test using GraphPad Prism 4.0 software to establish statistical significance (*p<0.05, **p<0.01, ***p<0.001 vs. vehicle control; # p<0.05, ## p<0.01, ### p<0.001 vs. animals administered ethanol only).
# [2] = test system: paracetamol-induced hepatotoxicity in mice; assay: Synergistic hepatoprotective activity of DBPs against paracetamol-induced hepatotoxicity (Example IV); format: in vivo; conditions: for ACP / ALP / ALT / AST / Total Protein: paracetamol 200 mg/kg, mean ± SEM, n=4
# [3] = test system: paracetamol-induced hepatotoxicity in mice; assay: Paracetamol-induced hepatotoxicity in mice, serum biochemical parameters (Example I); format: in vivo, Swiss albino mice; conditions: for ALP / ALT / AST / Total Bilirubin / Total Protein / Triglyceride: 10 mg/kg p.o. + paracetamol 200 mg/kg p.o., 7 days, serum, mean ± SD, n=6
# From the text: 3-OH-DBP (Natreon, Inc., New Brunswick, N.J., synthesized to 99% purity w/w) was in the form of a white free flowing powder. 3,8-(OH)2-DBP (Natreon, Inc., New Brunswick, N.J., synthesized to 99% purity w/w) was in the form of a pale green free flowing powder. Paracetamol (acetaminophen) was in the form of a white solid tablet.
# Swiss albino mice of both sexes, weighing approximately 25-30 g, were obtained from National Research Institute of Ayurveda for Drug Development (Govt. of India), Kolkata, and were housed in polypropylene cages at 22±3° C., relative air humidity of 45 to 55%, with 12.00 hr light and dark cycle (lighting on from 6:00 AM to 6:00 PM). Mice were provided standard pellet chow (carbohydrate 65.5%, protein 17.6%, fat 6.6%) and distilled water ad libitum. The mice were acclimatized for one week in the above laboratory conditions, before being used in this experiment. All experiments were conducted between 10.00 hr and 14.00 hr. Principles of laboratory animal care (NIH publication no. 85-23, revised 1985) were followed.
# The animals were randomly assigned into four groups of six animals each, as set out in Table 1. […] After 1 hr of last treatment, blood samples were collected and serum was separated.
# [4] = female mice, doses 3-OH-DBP 2, 3,8-(OH)2-DBP 10, 1:5 combination 12 mg/kg b.w.
# [5] = female mice, doses 3-OH-DBP 10, 3,8-(OH)2-DBP 50, 1:5 combination 60 mg/kg b.w.
# [6] = male mice, doses 3-OH-DBP 2, 3,8-(OH)2-DBP 10, 1:5 combination 12 mg/kg b.w.
# [7] = male mice, doses 3-OH-DBP 10, 3,8-(OH)2-DBP 50, 1:5 combination 60 mg/kg b.w.
smiles,measurement,setting,value
"O=c1oc2cc(O)ccc2c2ccccc12 [3-OH-DBP, 3-hydroxy-dibenzo-alpha-pyrone]",change in body weight,[1]; female mice,No significant change
same,change in food intake,[1]; female mice,No significant change
same,change in water intake,[1]; female mice,No significant change
same,body weight,"[1]; female mice, Day 0",26.83 ± 1.60 gm
same,food intake,"[1]; female mice, Day 0",8.14 ± 1.67 gm
same,water intake,"[1]; female mice, Day 0",4.16 ± 0.60 mL
same,body weight,"[1]; female mice, Day 5",25.5 ± 1.22 gm
same,water intake,"[1]; female mice, Day 5",4.32 ± 0.28 mL
same,body weight,"[1]; female mice, Day 10",24.33 ± 1.97 gm
same,food intake,"[1]; female mice, Day 10",16.38 ± 1.18 gm
same,water intake,"[1]; female mice, Day 10",1.85 ± 0.30 mL
same,body weight,"[1]; female mice, Day 15",25.17 ± 0.75 gm
same,food intake,"[1]; female mice, Day 15",15.88 ± 0.76 gm
same,water intake,"[1]; female mice, Day 15",1.84 ± 0.18 mL
same,change in body weight,[1]; male mice,No significant change
same,change in food intake,[1]; male mice,No significant change
same,change in water intake,[1]; male mice,No significant change
same,body weight,"[1]; male mice, Day 0",24.33 ± 2.25 gm
same,food intake,"[1]; male mice, Day 0",14.02 ± 0.06 gm
same,water intake,"[1]; male mice, Day 0",2.05 ± 0.23 mL
same,body weight,"[1]; male mice, Day 5",24 ± 1.55 gm
same,food intake,"[1]; male mice, Day 5",14.18 ± 0.72 gm
same,water intake,"[1]; male mice, Day 5",2 ± 0.27 mL
same,body weight,"[1]; male mice, Day 10",25.5 ± 1.05 gm
same,food intake,"[1]; male mice, Day 10",14.51 ± 0.77 gm
same,water intake,"[1]; male mice, Day 10",1.93 ± 0.23 mL
same,body weight,"[1]; male mice, Day 15",25.3 ± 0.52 gm
same,food intake,"[1]; male mice, Day 15",14.45 ± 0.78 gm
same,water intake,"[1]; male mice, Day 15",1.98 ± 0.25 mL
same,"ACP, difference in values from paracetamol treated mice",[2]; [4],A = (a-b = 4) U/L
same,"ALP, difference in values from paracetamol treated mice",[2]; [4],A = (a-b = 21) IU/L
same,"ALT, difference in values from paracetamol treated mice",[2]; [4],A = (a-b = 15) IU/L
same,"AST, difference in values from paracetamol treated mice",[2]; [4],A = (a-b = 45) IU/L
same,"ACP, difference in values from paracetamol treated mice",[2]; [5],D = (a-e = 7.6) U/L
same,"ALP, difference in values from paracetamol treated mice",[2]; [5],D = (a-e = 26) IU/L
same,"ALT, difference in values from paracetamol treated mice",[2]; [5],D = (a-e = 36) IU/L
same,"AST, difference in values from paracetamol treated mice",[2]; [5],D = (a-e = 71) IU/L
same,ACP,[2]; [4],12 ± 0.71***(b) U/L
same,ALP,[2]; [4],77 ± 11***(b) IU/L
same,ALT,[2]; [4],71 ± 9**(b) ^ IU/L
same,AST,[2]; [4],98 ± 10**(b) IU/L
same,Total Protein,[2]; [4],6.2 ± 0.16 g/dL
same,ACP,[2]; [5],8.4 ± 1.2^#(e) ^ U/L
same,ALP,[2]; [5],72 ± 6.9**(e) IU/L
same,ALT,[2]; [5],"50 ± 9.8*,^#(e) IU/L"
same,AST,[2]; [5],"72 ± 6*,^#(e)^ IU/L"
same,Total Protein,[2]; [5],6.2 ± 0.02 g/dL
same,Relative liver weight,"[2]; male and female mice, paracetamol study of Example IV",significantly (p<0.01) increased
same,"ACP, difference in values from paracetamol treated mice",[2]; [6],A = (a-b = 8.5) U/L
same,"ALP, difference in values from paracetamol treated mice",[2]; [6],A = (a-b = 38.33) IU/L
same,"ALT, difference in values from paracetamol treated mice",[2]; [6],A = (a-b = 7.29) IU/L
same,"AST, difference in values from paracetamol treated mice",[2]; [6],A = (a-b = 30.67) IU/L
same,"ACP, difference in values from paracetamol treated mice",[2]; [7],D = (a-e = 5.44) U/L
same,"ALP, difference in values from paracetamol treated mice",[2]; [7],D = (a-e = 43.75) IU/L
same,"ALT, difference in values from paracetamol treated mice",[2]; [7],D = (a-e = 16.14) IU/L
same,"AST, difference in values from paracetamol treated mice",[2]; [7],D = (a-e = 31.7) IU/L
same,ACP,[2]; [6],"9.69 ± 0.32**,^##(b) U/L"
same,ALP,[2]; [6],"90.17 ± 4.16***,^#(b) IU/L"
same,ALT,[2]; [6],60.34 ± 4.78 (b) IU/L
same,AST,[2]; [6],71.38 ± 4.63^#(b)^ IU/L
same,Total Protein,[2]; [6],7.28 ± 0.14 g/dL
same,ACP,[2]; [7],12.75 ± 1.43 (e) U/L
same,ALP,[2]; [7],"84.75 ± 5.32*,^#(e)^ IU/L"
same,ALT,[2]; [7],51.49 ± 4.49 (e)^ IU/L
same,AST,[2]; [7],70.35 ± 6.21(e)^ IU/L
same,Total Protein,[2]; [7],7.34 ± 0.15 g/dL
same,"hepatoprotective activity (conclusion, Tables 15 and 16)","[2]; paracetamol-induced hepatotoxicity, male and female mice",hepatoprotective activity in a dose dependent manner
same,"effect on paracetamol-induced hepatotoxicity (ALT, AST, triglyceride, bilirubin vs paracetamol group)","[3]; 10 mg/kg body weight, male (Table 2) and female (Table 3) mice",significantly attenuated and reversed the paracetamol-induced hepatotoxicity
same,"hepatoprotective activity against paracetamol, comparison of both test compounds","[3]; female mice, 10 mg/kg orally for 7 days, paracetamol 200 mg/kg",almost the same hepatoprotective activity
same,ALP,[3]; female mice,82.04 ± 8.96 IU/L
same,ALT,[3]; female mice,62.32 ± 15.97 IU/L
same,AST,[3]; female mice,62.28 ± 12.46 IU/L
same,Total Bilirubin,[3]; female mice,0.46 ± 0.26 mg/dL
same,Total Protein,[3]; female mice,6.6 ± 0.44 g/dL
same,Triglyceride,[3]; female mice,61.05 ± 1.73 mg/dL
same,"hepatoprotective activity against paracetamol-induced liver damage, in comparison with 3,8-(OH)2-DBP","[3]; male mice, 10 mg/kg orally once daily for 7 days, paracetamol 200 mg/kg",better hepatoprotective activity
same,ALP,[3]; male mice,80.00 ± 5.64 IU/L
same,ALT,[3]; male mice,65.42 ± 23.50 IU/L
same,AST,[3]; male mice,52.23 ± 3.73 IU/L
same,Total Bilirubin,[3]; male mice,0.50 ± 0.23 mg/dL
same,Total Protein,[3]; male mice,6.27 ± 0.14 g/dL
same,Triglyceride,[3]; male mice,97.65 ± 1.96 mg/dL
